# Test results as given in PMC4717575, “Characterization of a cold-active and salt tolerant esterase identified by functional screening of Arctic metagenomic libraries” (BMC Biochemistry, 2016).
# Tested on: T1, Lip3
# T1 construct: catalytic triad Ser150, Asp207, His267; primers encode N-terminal MNNYIID and C-terminal CLKSLL before the His tag
# Assay: p-nitrophenol release at […] nm, Lineweaver-Burk
# Assay type: biochemical, uncultured bacterium
# Conditions: 0.1 M Tris-HCl pH 8.0, 35 °C, 3 % acetonitrile
row,Structure (SMILES),K M (M.10^-3)
1,CCCCCCCCCC(=O)Oc1ccc([N+](=O)[O-])cc1 [pNP-decanoate],1.03 ± 0.12 M∙10^−3
2,CCCCCCCC(=O)Oc1ccc([N+](=O)[O-])cc1 [pNP-octanoate],0.36 ± 0.04 M∙10^−3

# Next, values leading:
row,K M (M.10^-3),Structure (SMILES)
1,2.38 ± 0.56 M∙10^−3,CC(=O)Oc1ccc([N+](=O)[O-])cc1 [pNP-acetate]
2,1.05 ± 0.16 M∙10^−3,CCCC(=O)Oc1ccc([N+](=O)[O-])cc1 [pNP-butanoate]
3,1.52 ± 0.20 M∙10^−3,CCCCC(=O)Oc1ccc([N+](=O)[O-])cc1 [pNP-pentanoate]
